Assays:
mouse P2RY14 [1] = molecular target: T1, mouse P2RY14 (Mus musculus, UniProt Q9ESG6); assay: CellKey System live cell functional assay, mouse P2RY14; assay type: cell-based; settings: HEK cells expressing mouse P2RY14 and Gqi5
T1 construct: expressed in transfected cells
T1 sequence (Q9ESG6 1-338): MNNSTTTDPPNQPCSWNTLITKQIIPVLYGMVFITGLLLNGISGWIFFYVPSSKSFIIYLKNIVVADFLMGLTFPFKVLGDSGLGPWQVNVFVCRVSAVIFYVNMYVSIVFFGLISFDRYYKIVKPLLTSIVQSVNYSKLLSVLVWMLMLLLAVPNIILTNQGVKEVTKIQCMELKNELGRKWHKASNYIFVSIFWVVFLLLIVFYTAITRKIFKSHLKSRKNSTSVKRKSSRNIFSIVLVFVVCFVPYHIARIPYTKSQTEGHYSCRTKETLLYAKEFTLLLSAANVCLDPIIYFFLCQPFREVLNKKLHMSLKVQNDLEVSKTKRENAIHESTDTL
Experimental: (§1) The Cellkey System™ (MDS Sciex), a novel, live cell, label-free, real-time technology, was used to examine P2RY14 activation following agonist stimulation. The CellKey System™ is based on cellular dielectric spectroscopy (CDS) and monitors changes in impedance of the applied electrical current through the cell monolayer upon receptor activation.
(§2) On the following day, growth medium was removed from the cell monolayer and replaced with 135 μl of HBSS pH 7.4 containing 20 mM Hepes for a 30 minutes pre-incubation period at room temperature. Baseline measurements were made for 5 minutes at 28° C. prior to ligand addition. For agonist assays, 15 μl of 10× agonist diluted in HBSS pH 7.4 containing 20 mM HEPES was added to the cell monolayer simultaneously using the 96 multichannel head from the CellKey™ System. Cellular response was monitored for 10 minutes to assess cellular response after ligand addition.

[2] = tested on: simian (chimpanzee) P2RY14; assay: FLIPR whole cell Ca2+ agonist assay, HEK cells expressing simian (chimpanzee) P2RY14 and Gqi5; assay type: cell-based
Excerpt: (§3) Stable HEK clonal cell lines expressing P2RY14 and the chimeric G protein Gqi5 were constructed. The chimeric Gqi5 forces the coupling of P2RY14 through the Gq (calcium) pathway and allows for monitoring of calcium signaling using a calcium binding fluorescent dye and a FLIPR (fluorometric imaging plate reader, MDS Sciex). Vector pCEP4 comprising the chimeric Gqi5 was obtained from Molecular Devices, Sunnyvale, Calif. (Cat. No. RD-PGQI5).
The simian (chimpanzee) P2RY14 nucleic acid fragment was synthesized based upon the Ensembl Gene ID ENSPTRG00000030093 by Bio S & T, Montreal, Quebec, Canada, to be flanked with KpnI and NotI restriction enzyme sites. […] The DNA fragment was digested with KpnI and NotI and then cloned into a pcDEF3 vector previously digested with KpnI and NotI to place the DNA fragment in the proper orientation downstream of the human EF-1a promoter. The nucleic acid encoding the simian P2RY14 was under the control of the human EF-1a promoter.
(§4) Cells were grown in DMEM medium containing 25 mM HEPES, pH 7.4 and 10% FBS, 50 units/ml penicillin/50 μg/ml streptomycin, 2 mM glutamine and 1 mM sodium pyruvate at 37° C. in humidified air containing 5% CO2. Two days post-transfection, cells were grown under selection in the DMEM medium as indicated above and supplemented with 200 μg/ml Hygromycin B and 250 μg/ml geneticin.
(§5) Cells were incubated overnight at 37° C. and 5% CO2 to form a monolayer. On the following day, 30 μl of fluorescent no-wash dye was added to the cell monolayer and the plate was incubated for 60 minutes at 37° C., 5% CO2.
(§6) For agonist assays, 6.12 μl of 10× agonist solution was added to the cell/dye incubation and Ca^2+ signaling was monitored by FLIPR. For antagonist assays, 250 nl of compound in 100% DMSO was added to cell/dye mixture; following a 20 minute incubation at room temperature, 6.12 μl of 10× agonist solution at EC80 in HBSS containing 20 mM Hepes was added to cells and Ca^2+ signaling was monitored by FLIPR. Quantitation of the % stimulation or inhibition of Ca^2+ signaling by agonist or antagonist, respectively, was calculated using the Max-Min fluorescent signal detected.

[3] = tested on: HEK cells not expressing P2RY14; assay: FLIPR Ca2+ release in HEK cells not expressing P2RY14 (specificity); assay type: cell-based
[4] = tested on: simian (chimpanzee) P2RY14; assay: CellKey System live cell functional assay, simian P2RY14; assay type: cell-based; settings: HEK cells expressing simian P2RY14 and Gqi5
Experimental: as §1, §2

rat P2YR14 receptor = molecular target: T2, rat P2YR14 receptor (Rattus norvegicus, UniProt O35881); settings: Fricks et al. 2007; cited from earlier work
T2 sequence (O35881 1-305): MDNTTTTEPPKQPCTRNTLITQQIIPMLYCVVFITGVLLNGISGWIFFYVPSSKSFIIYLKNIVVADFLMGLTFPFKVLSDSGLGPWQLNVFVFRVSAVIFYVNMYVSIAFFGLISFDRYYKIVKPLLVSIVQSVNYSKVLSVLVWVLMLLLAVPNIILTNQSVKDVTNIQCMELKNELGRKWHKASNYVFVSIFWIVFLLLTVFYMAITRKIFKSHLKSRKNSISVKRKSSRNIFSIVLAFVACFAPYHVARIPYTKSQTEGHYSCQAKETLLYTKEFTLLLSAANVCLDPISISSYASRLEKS

mouse P2RY14 [5] = molecular target: T1, mouse P2RY14; assay: FLIPR whole cell Ca2+ agonist assay, HEK cells expressing mouse P2RY14 and Gqi5; assay type: cell-based
Excerpt: as §3
The nucleic acid encoding the mouse P2RY14 was under the control of the CMV promoter.
as §4, §5, §6

simian P2RY14 = assay: Membrane filtration binding assay, simian P2RY14; design: species or system chimpanzee
Experimental: (§7) Membrane preparations were made by N2 cavitation using a Parr unit. […] Cell were Dounce homogenized (size B, 10 strokes) and then added to the cavitation unit. Pressure was adjusted to 800 psi and cells were left under pressure for 30 minutes. Broken cells were released drop by drop and spun at 1000 g for 10 minutes. Supernatent was spun at 160,000 g (rotor type 60 Ti, 40000 rpm for 30 min). Pellet was resuspended in 10 mM HEPES/KOH pH 7.4, 1 mM EDTA in ⅕ the original volume, dounce homogenized (size A, 10 strokes), aliquoted, and frozen at −80° C.
Binding assays were performed in 10 mM Hepes pH 7.4 (KOH), 5 mM MnCl2, 5 mM MgCl2 buffer. Membranes (10 μg/well for human P2RY14 and 30 μg/well for simian P2RY14) were incubated with 10 nM [5.6-^3H] Uridine 5′-triphosphate (UTP), ammonium salt from Amersham Biosciences (# TRK412) in presence of compounds diluted in DMSO (2% final in assay), in a total volume of 100 μl. 50 minutes (human P2RY14) or 60 minutes (simian) P2RY14) incubations were performed at room temperature with shaking. […] To examine the stability of [^3H]-UTP in the membrane filtration binding assay, 100 ul aliquots of the reaction mixture were extracted at 2, 10, 20, 40, 60 and 90 minutes with 100 uL of cold 80 mM EDTA solution (pH 8) and 200 uL of cold Acetonitrile. After mixing, proteins were precipitated by centrifugation at 13000 rpm for 10 minutes at 4° C. […] After 0.5 min at 10:90 50 mM KH2PO4/750 mM KH2PO4, a gradient was applied in order to increase to 100% 750 mM KH2PO4 at 5 min, after which this composition was maintained for an additional 3 min. Samples were kept at 4° C. prior to HPLC analysis

[6] = HPLC analysis of [3H]-UTP stability in the P2RY14 membrane filtration binding assay; settings: 60 minute incubation
Experimental: Binding assays were performed in 10 mM Hepes pH 7.4 (KOH), 5 mM MnCl2, 5 mM MgCl2 buffer. Membranes (10 μg/well for human P2RY14 and 30 μg/well for simian P2RY14) were incubated with 10 nM [5.6-^3H] Uridine 5′-triphosphate (UTP), ammonium salt from Amersham Biosciences (# TRK412) in presence of compounds diluted in DMSO (2% final in assay), in a total volume of 100 μl. 50 minutes (human P2RY14) or 60 minutes (simian) P2RY14) incubations were performed at room temperature with shaking. […] Incubation mixtures were filtered on GF/C Packard filter membranes (#6065174) and washed with cold 10 mM Hepes/KOH buffer at pH 7.4 (2×3.7 ml) using a Tomtek Mach III harvester. GF/C filters were subsequently dried at 55° C. in a vacuum oven for 1 hour before addition of 25 μl/well Ultima Gold F scintillation fluid from Packard (#6013179) and counted in a Wallac Microbeta counter normalized for ^3H (2 min/well). Counts (ccpms) generated by non specific binding were subtracted from total counts, to give specific binding which was expressed as % of total binding and K is were calculated by data analyzer using the inflection point of the dose dependant sigmoidal curve generated for each compound. Kds for [^3H]-UTP/[^3H]-UDP in the human and simian assays were determined by Scatchard analysis and are as follow: 10.03 nM for human P2RY14 and 10.25 nM for simian P2RY14. […]

P2RY14 = molecular target: T3, P2RY14 (Homo sapiens, UniProt Q15391); assay: Membrane filtration binding assay, human P2RY14; design: expressed in transfected cells; settings: human P2RY14 (data not shown)
T3 sequence (Q15391 1-338): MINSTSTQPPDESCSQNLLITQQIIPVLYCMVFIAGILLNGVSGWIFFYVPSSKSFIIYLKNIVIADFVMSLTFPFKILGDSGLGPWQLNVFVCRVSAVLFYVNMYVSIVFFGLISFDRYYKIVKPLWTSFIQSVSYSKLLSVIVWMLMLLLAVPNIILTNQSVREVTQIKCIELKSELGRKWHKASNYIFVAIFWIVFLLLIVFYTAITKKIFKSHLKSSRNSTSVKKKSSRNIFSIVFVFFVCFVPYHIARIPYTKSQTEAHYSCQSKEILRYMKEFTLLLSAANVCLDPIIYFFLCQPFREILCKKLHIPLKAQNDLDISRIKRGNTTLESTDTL
Experimental: as §7
Binding assays were performed in 10 mM Hepes pH 7.4 (KOH), 5 mM MnCl2, 5 mM MgCl2 buffer. Membranes (10 μg/well for human P2RY14 and 30 μg/well for simian P2RY14) were incubated with 10 nM [5.6-^3H] Uridine 5′-triphosphate (UTP), ammonium salt from Amersham Biosciences (# TRK412) in presence of compounds diluted in DMSO (2% final in assay), in a total volume of 100 μl. 50 minutes (human P2RY14) or 60 minutes (simian) P2RY14) incubations were performed at room temperature with shaking. […] To examine the stability of [^3H]-UTP in the membrane filtration binding assay, 100 ul aliquots of the reaction mixture were extracted at 2, 10, 20, 40, 60 and 90 minutes with 100 uL of cold 80 mM EDTA solution (pH 8) and 200 uL of cold Acetonitrile. After mixing, proteins were precipitated by centrifugation at 13000 rpm for 10 minutes at 4° C. […]

Structure (SMILES): O=c1ccn([C@@H]2O[C@H](COP(=O)(O)OP(=O)(O)O)[C@@H](O)[C@H]2O)c(=O)[nH]1 [UDP]
- P2RY14 signaling (impedance, CellKey) (mouse P2RY14 [1]): mediated signaling
- activation of P2RY14 (Ca2+ signaling) [2]: activated
- Ca2+ release in cells not expressing P2RY14 [3]: do not stimulate Ca^2+ release
- P2RY14 signaling (impedance, CellKey) [4]: mediated signaling
- mode of action at receptor (rat P2YR14 receptor): full agonist
- activation of P2RY14 (Ca2+ signaling) (mouse P2RY14 [5]): activated
- competition for [3H]-UTP/[3H]-UDP binding (simian P2RY14; simian P2RY14 membranes): able to successfully compete

Structure (SMILES): N.N.N.N.[3H]c1c([3H])n([C@@H]2O[C@H](COP(=O)(O)OP(=O)(O)OP(=O)(O)O)[C@@H](O)[C@H]2O)c(=O)[nH]c1=O [[^3H]-UTP, [5.6-^3H] Uridine 5′-triphosphate (UTP), ammonium salt]
- stability of radioligand in membrane filtration binding assay [6]: converted predominantly to [^3H]-UDP
- time of conversion to [3H]-UDP [6]: ≤ 10 min
- specific binding window as radioligand (P2RY14): a specific binding window
- specific binding window as radioligand (simian P2RY14; HEK cells expressing simian P2RY14, membrane filtration): a specific binding window
